Data from patent publication US20190142810A1, “MITOCHONDRIAL INHIBITORS FOR THE TREATMENT OF PROLIFERATION DISORDERS” (Basilea Pharmaceutica International AG, priority 2016, published 2019).

What was measured:
[1] = tested on: HeLa galactose cells; assay: Cell growth and proliferation assay of HeLa galactose cells (crystal violet); assay type: cell-based; details: Homo sapiens, HeLa, 72 h, 72 hours incubation, crystal violet staining, absorbance at 590 nm
Experimental: The cervical tumor cell line HeLa (ATCC, CCL-2) was cultivated in DMEM medium (Invitrogen cat. no. 11971, 4.5 g/L high glucose) containing 10% fetal calf serum (Sigma cat. no. F9665) and 1% Penicillin/Streptomycin (Sigma cat. no. P0781) at 37° C. in 5% CO2. HeLa galactose cells (i.e. HeLa cells that grow in high concentrations of galactose) were generated from HeLa glucose cells (i.e. HeLa cells that grow in high concentrations of glucose) by gradually changing the amount of glucose in the media to zero glucose in the presence of galactose as a sugar source (50% galactose/50% glucose media for one week, then 75% galactose/25% glucose media for one week, to 100% galactose media in the third week). Galactose media (Invitrogen cat. no. 11966) was supplemented with 10 mM galactose (Sigma cat. no. G5388).
Cell Growth and Proliferation Assay of HeLa Galactose and Glucose Cells
HeLa galactose cells and HeLa glucose cells were seeded in 96 well plates (TPP, cat. no 92696) at 2000 and 1500 cells/well, respectively, in 100 μL of complete medium. After overnight incubation the cells were incubated for 72 hours in complete medium containing 0.001% DMSO or compounds (final concentration of DMSO 0.001%). After the medium was removed, cells were fixed and stained by adding 50 μL crystal violet staining (0.2% crystal violet (Sigma-Aldrich cat. no. C0775) in 50% methanol) per well. The plates were incubated for 1 hour at room temperature. Subsequently the stain was decanted and plates were washed 4 times with de-mineralized water. Plates were air-dried for 2 hours. The stain was dissolved by adding 100 μL buffer (0.1 M Tris pH 7.5, 0.2% SDS, 20% ethanol) per well and shaking the plates. Absorbance at 590 nm was measured using a SpectraMax® 250 plate reader (Molecular Devices). Antiproliferative/growth inhibition IC50s were calculated from concentration-response curves using GraphPad Prism software.

[2] = tested on: Oxygen consumption (mitochondrial function); assay: Oxygen consumption assay (MitoXpress probe); assay type: cell-based; details: MitoXpress probe signal, kinetic analysis at 37° C. for 5 hours, compared to untreated cells
Source text: Oxygen consumption is one of the most informative and direct measures of mitochondrial function and can be measured, for example, by using the MitoXpress® assay (Luxcel MX-2001, Luxcel Biosciences). The MitoXpress® probe is one of a family of phosphorescent oxygen sensitive probes. The assay exploits the ability of oxygen to quench the excited state of the MitoXpress® probe. As the test material respires (i.e. the cells), oxygen is depleted in the surrounding solution/environment, which increases the probe phosphorescence signal. Changes in oxygen consumption reflecting changes in mitochondrial activity are seen as changes in the MitoXpress® probe signal over time.
Cells were seeded in 96 well black plates with transparent bottoms (Greiner Bio-One cat. no. 655090) at a density of 50′000 cells/well in a final volume of 100 μL. After 24 hours the incubation media was removed and 150 μL of fresh media containing inhibitors at different concentrations was added to each well. Then, 10 μL of MitoXpress® and 150 μL mineral oil were added per well. Reading from the top of the plate, kinetic analysis was performed at 37° C. for 5 hours using a Synergy 4 plate reader (BioTek) and Time-resolved Fluoresence (TRF) wavelengths of 380/11 nm excitation and 650/20 nm emission or 665/40 emission (30 microsecond delay time, 100 microsecond integration time, gain or sensitivity settings set at either medium or high). IC50s were calculated as the concentration that inhibits 50% of the phosphorescent oxygen sensitive probe signal (MitoXpress®) as compared to untreated cells.

IC50 [1]	SMILES	IC50 ([2]; 5 h)	IC50 [2]
34 nM	Cc1cc(NC(=O)N2CCC(Cc3c(F)cc(N(C)C)cc3F)CC2)ccn1 [Example 153]	119 nM	–
18 nM	Cc1nsc(NC(=O)N2CCC(Cc3c(F)cc(Cl)cc3F)CC2)n1 [Example 25, 4-[(4-chloro-2,6-difluoro-phenyl)methyl]-N-(3-methyl-1,2,4-thiadiazol-5-yl)piperidine-1-carboxamide]	55 nM	–
134 nM	N#CCCc1nsc(NC(=O)N2CCC(=Cc3ccc(Cl)cc3F)CC2)n1 [Example 80, 4-[(4-chloro-2-fluoro-phenyl)methylene]-N-[3-(2-cyanoethyl)-1,2,4-thiadiazol-5-yl]piperidine-1-carboxamide]	108 nM	–
47 nM	Cc1nsc(NC(=O)N2CCC(Cc3ccc(Cl)cc3F)C(C)C2)n1 (single isomer, unassigned) [Example 84a, 4-[(4-chloro-2-fluoro-phenyl)methyl]-3-methyl-N-(3-methyl-1,2,4-thiadiazol-5-yl)piperidine-1-carboxamide]	–	57 nM
21 nM	Cc1nsc(NC(=O)N2CCCC(Cc3ccc(Cl)cc3F)CC2)n1 (stereo not drawn) [Example 49, 4-[(4-chloro-2-fluoro-phenyl)methyl]-N-(3-methyl-1,2,4-thiadiazol-5-yl)azepane-1-carboxamide]	58 nM	–
41 nM	Cc1nsc(NC(=O)N2CCC(Cc3ccc(Cl)cc3)CC2)n1 [Example 2]	< 100 nM	–
20 nM	Cc1nsc(NC(=O)N2CCCC(Cc3c(F)cc(N(C)C)cc3F)CC2)n1 (stereo not drawn) [Example 121, 4-[[4-(dimethylamino)-2,6-difluoro-phenyl]methyl]-N-(3-methyl-1,2,4-thiadiazol-5-yl)azepane-1-carboxamide]	54 nM	–
227 nM	Cc1nccc(NC(=O)N2CCC(Cc3ccc(Cl)cc3F)CC2)n1 [Example 71]	338 nM	–
29 nM	Cc1nsc(NC(=O)N2CCC(C(=O)c3ccc(Br)cc3F)CC2)n1 [Example 141, 4-(4-bromo-2-fluoro-benzoyl)-N-(3-methyl-1,2,4-thiadiazol-5-yl)-piperidine-1-carboxamide]	56 nM	–
138 nM	Cc1nsc(NC(=O)N2CCC(Cc3ccc(Cl)cc3N)CC2)n1 [Example 24]	307 nM	–
15 nM	Cc1nsc(NC(=O)N2CCCC(Cc3c(F)cc(Cl)cc3F)CC2)n1 (stereo not drawn) [Example 127, 4-[(4-chloro-2,6-difluoro-phenyl)methyl]-N-(3-methyl-1,2,4-thiadiazol-5-yl)azepane-1-carboxamide]	35 nM	–
43 nM	COc1ccc(C(=O)C2CCN(C(=O)Nc3nc(C)ns3)CC2)c(F)c1 [Example 140, 4-(2-fluoro-4-methoxy-benzoyl)-N-(3-methyl-1,2,4-thiadiazol-5-yl)piperidine-1-carboxamide]	94 nM	–
54 nM	Cc1cc(NC(=O)N2CCC(C(=O)c3c(F)cc(C(F)(F)F)cc3F)CC2)ccn1 [Example 173]	136 nM	–
16 nM	Cc1nsc(NC(=O)N2CCC(Cc3c(F)cc(C#N)cc3F)CC2)n1 [Example 129, 4-[(4-cyano-2,6-difluoro-phenyl)methyl]-N-(3-methyl-1,2,4-thiadiazol-5-yl)piperidine-1-carboxamide]	20 nM	–
29 nM	Cc1nsc(NC(=O)N2CCC/C(=C/c3c(F)cc(N(C)C)cc3F)CC2)n1 [Example 115, (4Z)-4-[[4-(dimethylamino)-2,6-difluoro-phenyl]methylene]-N-(3-methyl-1,2,4-thiadiazol-5-yl)azepane-1-carboxamide]	79 nM	–
186 nM	Cc1nsc(NC(=O)N2CCC(=Cc3ccc(OC(F)(F)F)cc3F)CC2)n1 [Example 54]	235 nM	–
38 nM	Cc1nsc(NC(=O)N2CCC(=Cc3ccc(Cl)cc3F)CC2)n1 [Example 39, 4-[(4-chloro-2-fluoro-phenyl)methylene]-N-(3-methyl-1,2,4-thiadiazol-5-yl)piperidine-1-carboxamide]	69 nM	–
162 nM	CCc1ccc(CC2CCN(C(=O)Nc3nc(C)ns3)CC2)cc1 [Example 17]	243 nM	–

IC50 [1]	SMILES	IC50 ([2]; 5 h)	IC50 [2]
125 nM	Cc1nsc(NC(=O)N2CCC(=Cc3ncc(Cl)cc3F)CC2)n1 [Example 67]	233 nM	–
36 nM	Cc1nsc(NC(=O)N2CCC(Cc3ccc(C(F)(F)F)cc3)CC2)n1 [Example 10]	200 nM	–
271 nM	Cc1nsc(NC(=O)N2CCC(=Cc3ccc(OC(F)(F)F)cc3)CC2)n1 [Example 52]	477 nM	–
189 nM	Cc1nsc(NC(=O)N2CCC(=Cc3ccc(NCCCN)cc3F)CC2)n1 [Example 102]	395 nM	–
262 nM	Cc1nsc(NC(=O)N2CC/C(=C/c3ccc(Cl)cc3F)CC2C(C)C)n1 (stereo not drawn) [Example 87]	335 nM	–
163 nM	O=C(Nc1nc(CCO)ns1)N1CCC(=Cc2ccc(Cl)cc2F)CC1 [Example 78, 4-[(4-chloro-2-fluoro-phenyl)methylene]-N-[3-(2-hydroxyethyl)-1,2,4-thiadiazol-5-yl]piperidine-1-carboxamide]	267 nM	–
202 nM	Cc1nsc(NC(=O)N2CCC(Cc3ccc(OC(F)(F)F)cc3F)CC2)n1 [Example 55]	383 nM	–
36 nM	Cc1ccc(CC2CCN(C(=O)Nc3nc(C)ns3)CC2)cc1 [Example 5]	100 nM	–
43 nM	Cc1nsc(NC(=O)N2CCC(Cc3ccc(C#N)cc3F)CC2)n1 [Example 32]	116 nM	–
20 nM	Cc1cc(NC(=O)N2CCC(Cc3c(F)cc(N(C)C)cc3F)CC2)sn1 [Example 151, 4-[[4-(dimethylamino)-2,6-difluoro-phenyl]methyl]-N-(3-methylisothiazol-5-yl)piperidine-1-carboxamide]	42 nM	–
53 nM	Cc1nsc(NC(=O)N2CCC(Cc3ccc(F)cc3F)CC2)n1 [Example 60, 4-[(2,4-difluorophenyl)methyl]-N-(3-methyl-1,2,4-thiadiazol-5-yl)piperidine-1-carboxamide]	68 nM	–
197 nM	Cc1nsc(NC(=O)N2CCN(Cc3ccc(Cl)cc3F)CC2)n1 [Example 50, 4-[(4-chloro-2-fluoro-phenyl)methyl]-N-(3-methyl-1,2,4-thiadiazol-5-yl)piperazine-1-carboxamide]	255 nM	–
66 nM	Cc1nsc(NC(=O)N2CCC(=Cc3ccc(N(C)CCO)cc3F)CC2)n1 [Example 110]	151 nM	–
146 nM	O=C(Nc1ncns1)N1CCC(Cc2ccc(Cl)cc2F)CC1 [Example 48]	278 nM	–
13 nM	N#Cc1cc(F)c(C=C2CCN(C(=O)Nc3ccnc(C4CC4)c3)CC2)c(F)c1 [Example 182, 4-[(4-cyano-2,6-difluoro-phenyl)methylene]-N-(2-cyclopropyl-4-pyridyl)piperidine-1-carboxamide]	108 nM	–
149 nM	Cc1nsc(NC(=O)N2CCC(C(=O)c3ccc(N(C)C)cc3F)CC2)n1 [Example 155, 4-[4-(dimethylamino)-2-fluoro-benzoyl]-N-(3-methyl-1,2,4-thiadiazol-5-yl)piperidine-1-carboxamide]	–	–
500 nM	Cc1nsc(NC(=O)N2CCC(Cc3c(F)cc(Cl)cc3F)CC2(C)C)n1 (stereo not drawn) [Example 167]	–	–
478 nM	Cc1nsc(NC(=O)N2CCC(Cc3ccc(C(N)=O)cc3F)CC2)n1 [Example 37, 4-[(4-carbamoyl-2-fluoro-phenyl)methyl]-N-(3-methyl-1,2,4-thiadiazol-5-yl)piperidine-1-carboxamide]	–	–
